Data: patent US11691971B2, “Naphthyridinone compounds as JAK2 V617F inhibitors” (Incyte Corporation, priority 2020, dated 2023)
Where a name gives a salt, the structure may show the parent alone.

Key:
[1] = target: catalytic domain (JH1, amino acids 826-1132) of human JAK2 (Homo sapiens (Human), UniProt O60674); experiment: JAK2 LanthaScreen JH1 Binding Assay; conditions: JAK2 JH1 1.5 nM, 50 nM tracer, 2 hours at 25° C.; read-out: JH1BIND IC50
Description: Example A. JAK2 LanthaScreen JH1 Binding Assay
(§1) JAK2 JH1 binding assay utilizes catalytic domain (JH1, amino acids 826-1132) of human JAK2 expressed as N-terminal FLAG-tagged, biotinylated protein in a baculovirus expression system (Carna Biosciences, Product #08-445-20N). The assay was conducted in black 384-well polystyrene plates in a final reaction volume of 20 μL. JAK2 JH1 (1.5 nM) was incubated with compounds (100 nL serially diluted in DMSO) in the presence of 50 nM fluorescent JAK2-JH1 tracer and 0.5 nM Streptavidin-Tb cryptate (Cisbio Part #610SATLB) in assay buffer (50 mM Tris, pH=7.5, 10 mM MgCl2, 0.01% Brij-35, 0.1% BSA, 1 mM EGTA, 5% Glycerol and 5 mM DTT). Non-specific binding was accessed in the presence of 2 mM ATP. After incubation for 2 hours at 25° C., LanthaScreen signals were read on a PHERAstar FS plate reader (BMG LABTECH). Data was analyzed with IDBS XLfit and GraphPad Prism 5.0 software using a four parameter dose response curve to determine IC50 for each compound.

[2] = target: catalytic domain (JH1, amino acids 808-1132) of human JAK2 (Homo sapiens (Human), UniProt O60674); experiment: JAK2 HTRF Enzyme Activity Assay; format: biochemical; conditions: ATP 30 μM, 60 minutes at 25° C.; read-out: ENZ 30UMATP IC50
Sequence of catalytic domain (JH1, amino acids 808-1132) of human JAK2 (O60674 808-1132): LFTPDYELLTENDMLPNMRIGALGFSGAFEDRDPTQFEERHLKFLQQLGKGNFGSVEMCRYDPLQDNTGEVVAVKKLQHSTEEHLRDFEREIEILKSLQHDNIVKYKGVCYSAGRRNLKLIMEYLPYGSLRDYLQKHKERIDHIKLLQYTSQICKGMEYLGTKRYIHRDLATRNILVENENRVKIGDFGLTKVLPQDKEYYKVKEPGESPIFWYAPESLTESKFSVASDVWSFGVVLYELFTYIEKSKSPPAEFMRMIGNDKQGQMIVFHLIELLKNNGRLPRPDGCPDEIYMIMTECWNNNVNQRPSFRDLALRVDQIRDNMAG
Description: Example D. JAK2 HTRF Enzyme Activity Assay
JAK2 enzyme activity assays utilize catalytic domain (JH1, amino acids 808-1132) of human JAK2 expressed as N-terminal His-tagged protein in a baculovirus expression system (BPS Bioscience, Catalog #40450). The assays was conducted in black 384-well polystyrene plates in a final reaction volume of 20 μL. JAK2 (0.015 nM) was incubated with compounds (100 nL serially diluted in DMSO) in the presence of ATP (30 μM or 1 mM) and 500 nM Biotin-labeled […] (SEQ ID NO.: 1) peptide (BioSource International, custom synthesis) in assay buffer (50 mM Tris, pH=7.5, 10 mM MgCl2, 0.01% Brij-35, 0.1% BSA, 1 mM EGTA, 5% Glycerol and 5 mM DTT) for 60 minutes at 25° C. The reactions were stopped by the addition of 10 μL of detection buffer (50 mM Tris, pH 7.8, 0.5 mg/mL BSA, 150 mM NaCl), supplemented with EDTA, LANCE Eu-W1024 anti-phosphotyrosine (PY20), (PerkinElmer, Catalog #AD0067) and Streptavidin SureLight APC (PerkinElmer Catalog #CR130-100), for a final concentration of 15 mM, 1.5 nM and 75 nM, respectively. HTRF signals were read after 30 minutes incubation at room temperature on a PHERAstar FS plate reader (BMG LABTECH). Data was analyzed with IDBS XLfit and GraphPad Prism 5.0 software using a four parameter dose response curve to determine IC50 for each compound.

[3] = target: pseudo-kinase domain (JH2) of human Wild Type JAK2 (Homo sapiens (Human), UniProt O60674, F794H/W659A/W777A); experiment: JAK2 LanthaScreen JH2-WT Binding Assay; conditions: JAK2 JH2-WT 0.145 nM, 50 nM tracer, 1 hour at 25° C.; read-out: JH2BIND_WT IC50
Sequence of pseudo-kinase domain (JH2) of human Wild Type JAK2 (O60674 536-812 W659A/W777A/F794H): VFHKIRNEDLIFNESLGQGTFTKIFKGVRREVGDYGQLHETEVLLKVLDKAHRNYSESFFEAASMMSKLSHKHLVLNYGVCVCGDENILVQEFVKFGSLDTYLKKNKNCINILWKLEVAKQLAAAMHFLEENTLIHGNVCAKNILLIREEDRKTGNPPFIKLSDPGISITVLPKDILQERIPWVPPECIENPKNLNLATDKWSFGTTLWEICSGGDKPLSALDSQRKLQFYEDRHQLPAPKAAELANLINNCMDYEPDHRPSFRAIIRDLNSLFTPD
Description: Example B. JAK2 LanthaScreen JH2-WT Binding Assay
as §1, with “The” for “JAK2 JH1 binding assay utilizes catalytic domain (JH1, amino acids 826-1132) of human JAK2 expressed as N-terminal FLAG-tagged, biotinylated protein in a baculovirus expression system (Carna Biosciences, Product #08-445-20N). The”, “JH2-WT (0.145” for “JH1 (1.5”, “Fluorescent JAK2-JH2 Tracer (MedChem Express Catalog #HY-102055)” for “fluorescent JAK2-JH1 tracer”, “0.25” for “0.5”, “1 hour” for “2 hours”

[4] = target: pseudo-kinase domain (JH2) of human V617F mutant JAK2 (Homo sapiens (Human), UniProt O60674, F794H/V617F/W659A/W777A); experiment: JAK2 LanthaScreen JH2-V617F Binding Assay; conditions: JAK2 JH2-V617F 0.26 nM, 50 nM tracer, 1 hour at 25° C.; read-out: JH2BINDING_V617F IC50
Sequence of pseudo-kinase domain (JH2) of human V617F mutant JAK2 (O60674 536-812 V617F/W659A/W777A/F794H): as the sequence (O60674 536-812 W659A/W777A/F794H) above, with V82F counted along it
Description: The assay was conducted in black 384-well polystyrene plates in a final reaction volume of 20 μL. […] Non-specific binding was accessed in the presence of 2 mM ATP. After incubation for 1 hour at 25° C., LanthaScreen signals were read on a PHERAstar FS plate reader (BMG LABTECH). Data was analyzed with IDBS XLfit and GraphPad Prism 5.0 software using a four parameter dose response curve to determine IC50 for each compound.

Sequence of catalytic domain (JH1, amino acids 826-1132) of human JAK2 (O60674 826-1132): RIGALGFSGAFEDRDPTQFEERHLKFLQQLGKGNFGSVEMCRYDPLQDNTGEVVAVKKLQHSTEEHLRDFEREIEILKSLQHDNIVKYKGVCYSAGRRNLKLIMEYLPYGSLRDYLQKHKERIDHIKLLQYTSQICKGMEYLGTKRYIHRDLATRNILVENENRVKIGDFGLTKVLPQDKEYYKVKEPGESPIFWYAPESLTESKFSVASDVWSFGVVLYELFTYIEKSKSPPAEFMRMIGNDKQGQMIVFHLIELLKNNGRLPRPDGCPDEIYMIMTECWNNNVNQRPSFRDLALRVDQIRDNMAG

Structure (SMILES)	IC50 [1] [µM]	IC50 [2] [µM]	IC50 [3] [µM]	IC50 [4] [µM]
Cc1[nH]ncc1-c1c(Nc2cc(NC(=O)C3CC3)nc3cc[nH]c(=O)c23)cccc1C(F)(F)F [Example 19, N-(4-((2-(5-Methyl-1H-pyrazol-4-yl)-3-(trifluoromethyl)phenyl)amino)-5-oxo-5,6-dihydro-1,6-naphthyridin-2-yl)cyclopropanecarboxamide Trifluoroacetic Acid Salt]	> 10	> 10	1 to 10	1 to 10
COc1c(Nc2cc(NC(=O)C3CC3)nc3cc[nH]c(=O)c23)cccc1-c1cnn(C2CCOCC2)c1 [Example 5, N-(4-((2-Methoxy-3-(1-(tetrahydro-2H-pyran-4-yl)-1H-pyrazol-4-yl)phenyl)amino)-5-oxo-5,6-dihydro-1,6-naphthyridin-2-yl)cyclopropanecarboxamide Trifluoroacetic Acid Salt]	> 10	> 10	≤ 0.1	≤ 0.1
O=C(Nc1cc(Nc2ccccc2OC(F)F)c2c(=O)[nH]ccc2n1)C1CC1 [Example 20, N-(4-((2-(Difluoromethoxy)phenyl)amino)-5-oxo-5,6-dihydro-1,6-naphthyridin-2-yl)cyclopropanecarboxamide Trifluoroacetic Acid Salt]	1 to 10	1 to 10	1 to 10	1 to 10
O=C(Nc1cc(Nc2cccc(-c3cnn(C4CCOCC4)c3)c2)c2c(=O)[nH]ccc2n1)C1CC1 [Example 6, N-(5-oxo-4-((3-(1-(tetrahydro-2H-pyran-4-yl)-1H-pyrazol-4-yl)phenyl)amino)-5,6-dihydro-1,6-naphthyridin-2-yl)cyclopropanecarboxamide Trifluoroacetic Acid Salt]	1 to 10	1 to 10	> 10	> 10
COc1c(Nc2cc(NC(=O)C3CC3)nc3cc[nH]c(=O)c23)cccc1C(=O)NCC1CCOCC1 [Example 11, 3-((2-(Cyclopropanecarboxamido)-5-oxo-5,6-dihydro-1,6-naphthyridin-4-yl)amino)-2-methoxy-N-((tetrahydro-2H-pyran-4-yl)methyl)benzamide Trifluoroacetic Acid Salt]	> 10	> 10	1 to 10	1 to 10
CCn1ccc2cccc(Nc3cc(NC(=O)C4CC4)nc4cc[nH]c(=O)c34)c21 [Example 9, N-(4-((1-Ethyl-1H-indol-7-yl)amino)-5-oxo-5,6-dihydro-1,6-naphthyridin-2-yl)cyclopropanecarboxamide Trifluoroacetic Acid Salt]	> 10	> 10	1 to 10	1 to 10
O=C(Nc1cc(Nc2ccccc2OC2CC2)c2c(=O)[nH]ccc2n1)C1CC1 [Example 24, N-(4-((2-Cyclopropoxyphenyl)amino)-5-oxo-5,6-dihydro-1,6-naphthyridin-2-yl)cyclopropanecarboxamide Trifluoroacetic Acid Salt]	1 to 10	0.5 to 1	1 to 10	1 to 10
COc1c(Nc2cc(NC(=O)C3CC3)nc3ccn(C)c(=O)c23)cccc1-c1cnc(C2CCOCC2)s1 [Example 10, N-(4-((2-Methoxy-3-(2-(tetrahydro-2H-pyran-4-yl)thiazol-5-yl)phenyl)amino)-6-methyl-5-oxo-5,6-dihydro-1,6-naphthyridin-2-yl)cyclopropanecarboxamide Trifluoroacetic Acid Salt]	> 10	> 10	1 to 10	1 to 10
COc1c(Nc2cc(NC(=O)C3CC3)nc3cc[nH]c(=O)c23)cccc1-c1cn[nH]c1 [Example 1, N-(4-((2-Methoxy-3-(1H-pyrazol-4-yl)phenyl)amino)-5-oxo-5,6-dihydro-1,6-naphthyridin-2-yl)cyclopropanecarboxamide]	1 to 10	1 to 10	≤ 0.1	0.1 to 0.5
